Source: EP0371733A2, “Dopamine-beta-hydroxylase inhibitors” (SMITHKLINE BEECHAM CORPORATION, priority 1988, dated 1990)

Columns and labels:
DBH [1] = molecular target: T1, DBH (Homo sapiens, UniProt P09172); experiment: in vitro DBH inhibition, conversion of tyramine to octopamine in the presence of DBH; assay type: biochemical; settings: concentration at which DBH activity was halved; octopamine assayed by absorbence at 330 nm; read-out: DBH IC₅₀
T1 sequence (P09172 1-617): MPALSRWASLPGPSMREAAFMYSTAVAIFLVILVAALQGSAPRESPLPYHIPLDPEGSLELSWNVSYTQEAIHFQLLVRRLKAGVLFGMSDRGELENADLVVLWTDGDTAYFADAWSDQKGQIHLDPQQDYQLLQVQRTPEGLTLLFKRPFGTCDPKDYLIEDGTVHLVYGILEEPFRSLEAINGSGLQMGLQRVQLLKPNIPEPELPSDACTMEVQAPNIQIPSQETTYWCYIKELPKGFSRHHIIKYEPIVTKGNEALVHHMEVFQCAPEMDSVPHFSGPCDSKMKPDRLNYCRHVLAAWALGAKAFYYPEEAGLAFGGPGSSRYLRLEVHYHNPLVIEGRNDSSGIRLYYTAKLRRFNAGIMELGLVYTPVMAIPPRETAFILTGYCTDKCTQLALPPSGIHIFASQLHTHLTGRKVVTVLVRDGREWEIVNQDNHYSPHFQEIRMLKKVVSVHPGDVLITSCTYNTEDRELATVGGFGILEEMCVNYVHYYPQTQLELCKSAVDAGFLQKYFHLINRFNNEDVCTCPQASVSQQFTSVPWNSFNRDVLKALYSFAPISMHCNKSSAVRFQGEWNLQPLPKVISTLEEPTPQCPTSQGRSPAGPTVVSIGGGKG
Experimental: Listed in Table I are compounds of the invention that were tested for in vitro DBH inhibition by a standard procedure for assaying conversion of tyramine to octopamine in the presence of DBH. J.J. Pisano, et al., Biochim. Biophys. Acta, 43, 566-568 (1960). Octopamine was assayed following sodium periodate oxidation to p-hydroxybenzaldehyde by measuring spectrophotometric absorbence at 330 nm. In Table I, inhibition is given in molar concentration of compound at which DBH activity was halved (IC₅₀). Fusaric acid, by this test has an IC₅₀ of 8 x 10⁻⁷M.

[2] = system: spontaneously hypertensive rats; experiment: mean arterial blood pressure in spontaneously hypertensive rats; assay type: in vivo; settings: 50 mg/kg intraperitoneally, vs vehicle-treated controls
Experimental: Further, spontaneously hypertensive rats were treated with 3-(3-fluorophenylmethyl)-2-thiazolidinethione at a dose of 50 mg/kg intraperitoneally, and mean arterial blood pressure was monitored for 250 minutes using indwelling cannulae in the tail arteries. […] The maximal blood pressure reduction was approximately 20 mmHg.

[3] = in vitro screen; Weiffen et al., 1967; cited from earlier work
[4] = Teresawa et al., 1971; cited from earlier work
DBH [5] = molecular target: T1, DBH; settings: Runti et al., 1980; cited from earlier work

Compound | IC50 (DBH [1]) | tuberculostatic activity [3] | also measured
Fc1cc(F)cc(CN2CCSC2=S)c1 [3-(3,5-Difluorophenylmethyl)-2-thiazolidinethione] | 13 ± 1 µM |  | 
Fc1cccc(CN2CCSC2=S)c1 [3-(3-Fluorophenylmethyl)-2-thiazolidinethione] | 30 ± 3 µM |  | maximal blood pressure reduction ([2]; mean arterial blood pressure monitored for 250 minutes): approximately 20 mmHg; time to significant blood pressure reductions following treatment [2]: ≤ 30 min
S=C1SCCN1Cc1ccccc1 [3-Phenylmethyl-2-thiazolidinethione] | 72 ± 13 µM | poor activity | 
S=C1SCCN1CCc1ccccc1 [3-phenethylthiazolidinethione, reference compound] |  | poor activity | 
CCCCc1ccc(C(=O)O)nc1 [Fusaric acid] |  |  | toxic effects [4]: hepatotoxic
phenylpicolinic acid |  |  | inhibitory activity relative to fusaric acid (DBH [5]): twice the inhibitory activity of fusaric acid
